Source: patent EP0563345B1, “NOVEL 4-ARYLPIPERAZINES AND 4-ARYLPIPERIDINES” (MCNEILAB, INC., priority 1991, dated 1993)
Counter-ions that a name gives are not always drawn. Like-named read-outs stand apart in the source and are kept apart here.

Experiments:
[1] = target: T1, D-2 (dopamine-2) receptors (Rattus norvegicus, UniProt P61169); experiment: biochemical; format: binding, male, Wistar rats
T1 construct: The D2 assay employed a P2 fraction from the striatum, the ligand ^3H-spiperone at a concentration of 0.05 nM; from tissue; host or cells: rat striatum, P2 fraction (synaptosomal membranes), male Wistar rats
Description: The dopamine D2 binding activity of compounds was determined using a P2 fraction (synaptosomal membranes) prepared from male, Wistar rats.
The data from this assay were analyzed by calculating the percent inhibition of the binding of the tritiated ligands by given concentrations of the test compound. Kl values, where given, were obtained from the logit analysis of concentration-inhibition curves.

[2] = tested on: Male, Fischer 344 rats; experiment: Block of Conditioned Avoidance Responding (Rat) test (CAR); details: for CAR 5 mg/kg IP Administration (% change CAR) / CAR 15 mg/kg IP Administration (% change CAR): negative number = blockade of CAR; for CAR IP Administration (% change CAR) at 30 mg/kg: 30 mg/kg IP
Text: Apparatus: Rat operant chambers, housed within sound attenuated booths, both from Capden Instruments Ltd., were used in this test. The test chamber (8" H x […] D) is constructed of aluminum and plexiglass with floor grid bars of stainless-steel (1/8" O.D.) spaced 9/16" apart. A stainless-steel operation level 1-1/2" wide projects 3/4" into the chamber and is positioned 2-2/8" above the grid floor. The shock stimulus is delivered via the grid floor by a Coulbourn Instruments solid state module. The parameters of the test and the collection of data are controlled automatically.
The rats are trained for two weeks to approach criterion levels in the avoidance test (90% avoidance rate). One-hour training sessions are run at about the same time each day for four or five days a week. The training session consists of 120 trials, with the conditioned stimuli presented every 30 sec. A trial begins with presentation of the conditioned stimuli (a light and a tone). If the rat responds by depressing the operant lever during the 15-second presentation of the conditioned stimuli, the trial is terminated and the animal is credited with a CAR. Failure to respond during the conditioned stimuli causes the presentation of the unconditioned stimulus (UCS), a 0.7 mA shock which is accompanied by a light and tone for five seconds. If the rat depressed the lever within the ten-second period, the shock and trial are terminated and an escape response recorded. If the rat fails to depress the lever during the UCS (shock), the trial is terminated after ten seconds of shock and the absence of a response is scored as a failure to escape. Intertrial level presses have no effect. If a rat performs at the 90% CAR level for two weeks, it is then run twice a week on the test schedule (see below) until baseline performance stabilized.
Trained rats are run in a one-hour session on two consecutive days at the same time and in the same test chamber each day. The sessions consist of 60 trials, one every minute. The conditioned stimuli are presented for 15 sec (maximum) and the unconditioned stimuli five sec (maximum). On Day 1, a vehicle solution is administered to the rats at a time preceding the trial run corresponding to the pretreatment time for the test compound. The route of administration and the volume of vehicle are also matched to that of the test compound.
The percent change in CAR on the drug treatment day compared to vehicle pretreatment day is the key measure. The percent change (% change) in CAR is determined using the following formula: % change CAR = ((% CAR for Day 2/% CAR for Day 1) x 100)-100 [formula]
A negative number indicates a blockade of CAR, whereas a positive number would indicate increased CAR. The test results are reported as the mean % change for the group of rats. Failure to escape, a measure of the general sedative potential of the compound, was calculated for each animal as follows: % Failures = # of Failures to Escape/# of trials [formula]
The % failures, viz., loss of escape, is also reported as a group mean. Failures to escape are monitored closely and a session is terminated if ten failures occurred.
In the Tables and formulas therein, OiPr is isopropoxy, Me is methyl, MeO is methoxy, Et is ethyl, Ph is phenyl, n-Bu is normal butyl, cC6H11 is cyclohexyl, BOC is t-butyloxycarbonyl, Ac is acetyl, and NT is not tested in that partcular test. The escape loss numbers are shown at CAR 5 mg/kg unless otherwise noted.

[3] = rat striatum P2 fraction, 3H-spiperone 0.05 nM, read-out: Receptor Binding (Ki nM) D2

T1 sequence (P61169 whole entry): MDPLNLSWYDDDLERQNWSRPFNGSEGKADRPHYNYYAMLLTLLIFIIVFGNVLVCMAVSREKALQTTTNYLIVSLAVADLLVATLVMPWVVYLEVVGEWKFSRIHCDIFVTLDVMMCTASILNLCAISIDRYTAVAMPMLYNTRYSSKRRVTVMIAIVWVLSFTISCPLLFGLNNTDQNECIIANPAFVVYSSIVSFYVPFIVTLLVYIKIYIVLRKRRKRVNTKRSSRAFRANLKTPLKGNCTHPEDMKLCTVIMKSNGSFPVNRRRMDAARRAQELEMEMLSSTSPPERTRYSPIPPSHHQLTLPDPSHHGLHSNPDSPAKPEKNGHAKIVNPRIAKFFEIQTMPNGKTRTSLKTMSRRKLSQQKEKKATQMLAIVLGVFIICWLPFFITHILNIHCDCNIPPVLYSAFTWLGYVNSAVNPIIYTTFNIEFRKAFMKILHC

SMILES | Ki [1, 3] [nM] | CAR 5 mg/kg IP Administration (% change CAR) [2] [%] | (Escape Loss) % failures to escape ([2]; at CAR 5 mg/kg IP) [%] | CAR 15 mg/kg IP Administration (% change CAR) [2] [%] | (Escape Loss) % failures to escape ([2]; at CAR 15 mg/kg IP) [%] | other results
C[C@@H]1CCC[C@H](C)N1C(=O)c1cccc(CN2CCN(c3ccccc3C#N)CC2)c1 [Compound 3] | 303 |  |  |  |  | 
CC(C)Oc1ccccc1N1CCN(Cc2cccc(C(=O)N3CCC(=O)CC3)c2)CC1 [Compound 44] |  | -68 | 16 |  |  | Ki [1]: 42 nM
CC(C)Oc1ccccc1C1CCN(Cc2cccc(C(=O)N3CCOCC3)c2)CC1 [Compound 41] | 9.6 | -96 | 70 |  |  | 
CC(C)Oc1ccccc1N1CCN(Cc2cccc(C(=O)N3CCC[C@H]3CO)c2)CC1 [Compound 16] | 5.1 |  |  | -99 | 35 | 
CC(C)Oc1ccccc1N1CCN(Cc2cccc(C(=O)N3CCC4(CC3)OCCO4)c2)CC1 [Compound 45] |  | -95 | 20 |  |  | Ki [1]: 20 nM
CC(C)Oc1ccccc1N1CCN(Cc2cccc(C(=O)N3CCN(Cc4ccccc4)CC3)c2)CC1 [Compound 64] | 40 |  |  |  |  | CAR IP Administration (% change CAR) at 30 mg/kg [2]: -23%; (Escape Loss) % failures to escape ([2]; at CAR 30 mg/kg IP): 2%
CC(C)Oc1ccccc1N1CCN(Cc2cccc(C(=O)N3CCN(c4ccccc4OC(C)C)CC3)c2)CC1 [Compound 50] | 171 | 0 | 1 |  |  | 
CC(=O)Nc1ccc(CN2CCN(c3ccccc3OC(C)C)CC2)cc1C(=O)N1CCCCC1 [Compound 28] | 29 |  |  | -100 | 17 | 
O=C(c1cccc(CN2CCN(c3cc(Cl)cc(Cl)c3)CC2)c1)N1CCCCC1 [Compound 94] | 21 | -43 | 3 |  |  | 
CC(C)Oc1ccccc1N1CCN(CCCCc2ccc(C(=O)N3CCCCC3)cc2)CC1 [Compound 102, 1-[4-[4-[4-[2-(1-Methylethoxy)phenyl]-1-piperazinyl]butyl]benzoyl]piperidine dihydrobromide] | 7.2 |  |  |  |  | 
COc1ccc(CN2CCN(c3ncccn3)CC2)cc1C(=O)N1[C@H](C)CCC[C@@H]1C [Compound 6] | 808 |  |  |  |  | 
CCOC(=O)C1CCCCN1C(=O)c1cccc(CN2CCN(c3ccccc3C)CC2)c1 (stereo not drawn) [Compound 18] | 132 |  |  | -24 | 9 | 
O=C(c1cccc(CN2CCN(c3ncccn3)CC2)c1)N1CCc2ccccc21 [Compound 23] | > 1000 |  |  | -62 | 9 | 
CC(C)Oc1ccccc1N1CCN(Cc2cccc(C(=O)N3CCCC3)c2)CC1 [Compound 52] |  |  |  |  |  | CAR IP Administration (% change CAR) at 7.5 mg/kg ([2]; 7.5 mg/kg IP): -98%; (Escape Loss) % failures to escape ([2]; at CAR 7.5 mg/kg IP): 0%
CC(C)Oc1ccccc1N1CCN(Cc2ccccc2C(=O)N2CCOCC2)CC1 [Compound 110] | 32 |  |  |  |  | 
O=C(c1cccc(CN2CCN(c3ccccc3F)CC2)c1)N1CCCCC1 [Compound 22] |  |  |  | -84 | 21 | 
CC(C)Oc1ccccc1N1CCN(Cc2cccc(C(=O)NCCCCCCNC(=O)OC(C)(C)C)c2)CC1 [Compound 98] | 88 |  |  | -8 | 0 | 
CC(C)Oc1ccccc1N1CCN(Cc2cccc(C(=O)N(C)CCc3ccccc3)c2)CC1 [Compound 43] | 19 |  |  | -77 | 0 | 
O=C(c1cccc(CN2CCN(c3cccc([N+](=O)[O-])c3)CC2)c1)N1CCCCC1 [Compound 49] |  |  |  | -78 | 0 | 
O=C(c1cccc(CN2CCN(c3cccc(Cl)c3)CC2)c1)N1CCCCC1 [Compound 91] |  | -36 | 21 |  |  | 

SMILES | Ki [1, 3] [nM] | CAR 5 mg/kg IP Administration (% change CAR) [2] [%] | (Escape Loss) % failures to escape ([2]; at CAR 5 mg/kg IP) [%] | CAR 15 mg/kg IP Administration (% change CAR) [2] [%] | (Escape Loss) % failures to escape ([2]; at CAR 15 mg/kg IP) [%] | other results
CC(C)Oc1ccccc1N1CCN(Cc2ccc([N+](=O)[O-])c(C(=O)N3CCCCC3)c2)CC1 [Compound 7] | 85 |  |  |  |  | 
CCOC(=O)C1CCN(C(=O)c2cccc(CN3CCN(c4ccccc4OC(C)C)CC3)c2)CC1 [Compound 42] | 121 | -18 | 0 |  |  | 
CC(C)Oc1ccccc1N1CCN(Cc2cccc(C(=O)N3CC4CCC(CC4)C3)c2)CC1 [Compound 96] |  |  |  | -98 | 67 | 
CC(C)Oc1ccccc1N1CCN(Cc2cccc(S(=O)(=O)N3CCCC3)c2)CC1 [Compound 106] | 196 | -27 | 0 |  |  | 
CCOC(=O)C1CCN(C(=O)c2ccccc2CN2CCN(c3ccccc3OC(C)C)CC2)CC1 [Compound 108] | 10.4 |  |  |  |  | 
CC(C)Oc1ccccc1N1CCN(Cc2cccc(C(=O)N3CCC3)c2)CC1 [Compound 51] |  |  |  | -88 | 0 | 
CC(C)Oc1ccccc1N1CCN(Cc2cccc(C(=O)Nc3ccc(F)cc3)c2)CC1 [Compound 75] | ~30 |  |  |  |  | CAR IP Administration (% change CAR) at 30 mg/kg [2]: -1%; (Escape Loss) % failures to escape ([2]; at CAR 30 mg/kg IP): 0%
CC(C)Oc1ccccc1N1CCN(Cc2cccc(S(=O)(=O)N3CCC(O)CC3)c2)CC1 [Compound 107, 1-[3-[[4[2-(1-Methylethoxy)phenyl]-1-piperazinyl]methyl]phenylsulfonyl]-4-hydroxypiperidine] | 69 | -95 | 5 |  |  | 
COc1ccc(OC)c(N2CCN(Cc3cccc(C(=O)N4CCCCC4)c3)CC2)c1 [Compound 46] | 592 | -66 | 48 |  |  | 
CC(C)Oc1ccccc1N1CCN(Cc2cccc(C(=O)N3C(C)CCC3C)c2)CC1 (stereo not drawn) [Compound 2] | 4.7 |  |  |  |  | 
CC(C)Oc1ccccc1N1CCN(Cc2cccc(C(=O)N3CCCCCCC3=O)c2)CC1 [Compound 67] | 10.2 | -28 | 7 |  |  | 
CC(C)Oc1ccccc1N1CCN(CCCC(O)c2ccc(C(=O)N3CCCCC3)cc2)CC1 (stereo not drawn) [Compound 101, bisoxalate] | 13 |  |  |  |  | 
CCN(CC)C(=O)c1cccc(CN2CCN(c3ccccc3OC(C)C)CC2)c1 [Compound 68] |  | -96 | 14 |  |  | 
O=C(c1cccc(CN2CCN(c3ccccc3)CC2)c1)N1CCCCC1 [Compound 95] |  |  |  | -82 | 11 | 
CC(C)Oc1ccccc1N1CCN(Cc2cccc(C(=O)N3CCC4CCCCC43)c2)CC1 (stereo not drawn) [Compound 4] | 5.6 |  |  |  |  | 
COc1ccccc1N1CCN(Cc2cccc(C(=O)N3CCCCCC3)c2)CC1 [Compound 85] |  | -95 | 22 |  |  | 
CC(C)Oc1ccccc1N1CCN(CCCC(=O)c2ccc(C(=O)N3CCCCC3)cc2)CC1 [Compound 100, fumarate] | 11 |  |  |  |  | 
CC(C)Oc1ccccc1N1CCN(Cc2ccccc2C(=O)N2CCCC(C)(C)C2)CC1 [Compound 109] | 7 |  |  |  |  | 
CC(C)Oc1ccccc1C1CCN(Cc2cccc(C(=O)N3[C@H](C)CCC[C@@H]3C)c2)CC1 [Compound 40] |  | -98 | 37 |  |  | 
CCCCN(CCCC)C(=O)c1cccc(CN2CCN(c3ccccc3OC(C)C)CC2)c1 [Compound 69] |  |  |  | -6 | 0 | 
